We go through 10 compounds from PubChem BioAssay (NCI).

Test in all cases: inhibition of tumour cell growth, NCI panel, 48 h
The test system of experiment [1] is OVCAR-8 ovarian.
The test system of experiment [2] is NCI-H23 lung.
Experiment [3] concerns SW-620 colon.
Experiment [4] has as its system TK-10 renal.
The subject of experiment [5] is OVCAR-5 ovarian.
The test system of experiment [6] is NCI/ADR-RES ovarian.
The test system of experiment [7] is HCT-116 colon.
The test system of experiment [8] is SK-MEL-5 melanoma.
Experiment [9] deals with SR leukemia.
Experiment [10] concerns K-562 leukemia.

Values joined by “and” are separate entries in the source; they are usually repeats but may differ in a detail not shown here. Equal values may be shown once.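 In this assay, cells in 96-well plates receive the compound at five concentrations for 48 hours. Endpoints are linearly interpolated between the surrounding concentrations. GI50 is the concentration that inhibits growth by half. TGI: total growth inhibition.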 Where only a bound is given, the exact number is not on record here.

Turning to `C/C(Cc1ccc(Cl)cc1)=C(/c1ccc(Cl)cc1)c1ccc(OCCN(C)C)cc1`, the GI50 in experiment [1] is 5.75 µM; in [2], 4.54 µM; in [3] it was 1.67 µM; in experiment [4], 5.1 µM; in experiment [5], 4.79 µM; in experiment [6] it was 4.8 µM. In addition, the GI50 in experiment [7] is 3.03 µM; in experiment [8] it was 4.4 µM; in experiment [9], 0.991 µM; in experiment [10], 0.981 µM. Further, the TGI in [1] turned out to be 13.7 µM; in experiment [2], 9.14 µM; in experiment [3], 6.1 µM; in [4] it was 10.8 µM; in experiment [5], 9.3 µM; in experiment [6], 9.88 µM. Also, the TGI in experiment [7] came out at 8.74 µM; in experiment [8], 8.78 µM; in experiment [9], 3.81 µM; in experiment [10], 5.83 µM.

On to `O=C1CCc2c(sc3[nH]c(=S)n(Cc4ccccc4)c(=O)c23)C1`, for which the GI50 in experiment [1] was 3.19 µM; in experiment [2], 2.79 µM; in experiment [3], 4.2 µM; in experiment [4], 4.51 µM; in [5], 3.67 µM; in experiment [6], 3.25 µM. The GI50 is 3.38 µM in experiment [7], 1.86 µM in [8], 2.3 µM in experiment [9] and 1.76 µM in [10]. The TGI in experiment [1] was more than 100 µM; in experiment [2], 8.6 µM; in experiment [3], more than 100 µM; in experiment [4], more than 100 µM; in experiment [5], more than 100 µM; in experiment [6] it was more than 100 µM. Further, the TGI in experiment [7] was more than 100 µM; in [8] it was 3.74 µM; in [9], 8.22 µM; in [10], more than 100 µM.

Turning to `C[C@H]1C(Oc2ccc(O)cc2)OC2OC3(C)CCC4[C@H](C)CCC1C24OO3` (some centres undefined), the GI50 is 2.12 µM in experiment [1]; 12 µM in experiment [2]; 8.74 µM in experiment [3]; 15.9 µM in experiment [4]; 10.4 µM in experiment [5]; 8.04 µM in experiment [6]. The GI50 was 8.56 µM in experiment [7], 13.2 µM in experiment [8] and more than 42 µM in [10]. Moreover, the TGI in experiment [1] is 25.4 µM; in [2], 27.7 µM; in [3], 43.2 µM; in [4] it was 37.8 µM; in [5] it was 25.9 µM; in experiment [6], 25.8 µM. Further, the TGI in [7] was 25 µM; in [8] it was 27.3 µM; in [9], more than 100 µM; in experiment [10], more than 100 µM.

Regarding `COc1cccc2[nH]c(-c3ccccn3)nc12`, the TGI in [1] is more than 100 µM; in [2] it was more than 100 µM; in experiment [3], more than 100 µM; in [4], more than 100 µM; in [5], more than 100 µM; in experiment [6] it was 73.8 µM. The TGI in experiment [7], in experiment [8], in experiment [9] and in [10] was more than 100 µM each time.

For `COc1ccc(C(=O)COc2cccc(/C=C3\CSc4ccc(C)cc4C3=O)c2)cc1`, the GI50 was 5.89 µM in experiment [1]; 6.99 µM in [2]; 2.03 µM in [3]; 19.8 µM in experiment [4]; 51.9 µM in experiment [5]; 3.89 µM in [6]. For the same compound, the GI50 was 1.91 µM in [7], 10.9 µM in [8], 1.98 µM in experiment [9] and 2.17 µM in experiment [10]. Further, the TGI is more than 100 µM in experiment [1]; more than 100 µM in [2]; 4.74 µM in [3]; more than 100 µM in [4]; more than 100 µM in experiment [5]; 18.7 µM in [6]. Further, the TGI in experiment [7] is 5.71 µM; in [8], more than 100 µM; in [9], 5.25 µM; in experiment [10], 6.9 µM.

Turning to `Nc1c(C(=O)Nc2ccccc2F)sc2nc3c(cc12)C(=O)CCC3`, the GI50 in experiment [1] is 13.8 µM; in experiment [2] it was 2.04 µM; in experiment [3], 0.721 µM; in [4], 4.3 µM; in [5], 4.05 µM; in experiment [6], 0.509 µM. The GI50 in experiment [7] was 0.646 µM; in [8] it was 0.382 µM; in experiment [9], 1.68 µM; in experiment [10] it was 0.553 µM. In addition, the TGI is more than 100 µM in experiment [1]; more than 100 µM in experiment [2]; more than 100 µM in [3]; more than 100 µM in experiment [4]; more than 100 µM in experiment [5]; 5.09 µM in experiment [6]. Also, the TGI in [7], in experiment [8], in [9] and in [10] was more than 100 µM throughout.

Regarding `O=C(O)c1ccc2c(c1)nc(Nc1cccc(Cl)c1)c1ccncc12`, the GI50 is 4.1 µM and 3.3 µM in experiment [1]; 2.37 µM and 2.98 µM in experiment [2]; 3.1 µM and 3.97 µM in experiment [3]; 3.67 µM and 2.13 µM in experiment [4]; 3.2 µM and 4.53 µM in [5]; 3.17 µM and 3.73 µM in experiment [6]. The GI50 in experiment [7] is 2.39 µM and 2.82 µM; in experiment [8], 1.86 µM and 2.08 µM; in experiment [9], 2.04 µM and 2.63 µM; in [10], 3.06 µM and 4.09 µM. The TGI in [1] is more than 75.4 µM; in experiment [2], 8.29 µM and > 10 µM; in experiment [3], 26.5 µM and > 10 µM; in [4] it was 25.2 µM and > 10 µM; in [5], 38.7 µM and > 10 µM; in experiment [6], more than 80.1 µM. Also, the TGI in [7] was 8.69 µM and > 10 µM; in [8], 4.76 µM and 5.38 µM; in experiment [9], 6.3 µM and 9.2 µM; in [10], 15.7 µM and > 10 µM.

For `O=[N+]([O-])c1ccc2ncccc2c1Cl`, the GI50 in [1] is 2.96 µM; in experiment [2], 6.96 µM; in experiment [3], 0.627 µM; in [4], 6.38 µM; in experiment [5] it was 3.44 µM; in experiment [6], 3.92 µM. The GI50 in experiment [7] is 1.57 µM; in [8], 2.95 µM; in experiment [9] it was 0.308 µM; in experiment [10], 0.382 µM. For the same compound, the TGI in experiment [1] was 8.69 µM; in experiment [2] it was 29.8 µM; in experiment [3] it was 16 µM; in experiment [4], 46.1 µM; in experiment [5], more than 100 µM; in [6], more than 100 µM. Moreover, the TGI in experiment [7] stood at 7.23 µM; in experiment [8] it was 10 µM; in [9], 4.12 µM; in experiment [10], 27.1 µM.

As to `Cn1c(=S)c2[nH]c(SCCN3CCCC3)nc2n(C)c1=O`, the TGI in [1], in experiment [2], in experiment [3], in experiment [4], in experiment [5] and in experiment [6] was more than 100 µM throughout. Besides, the TGI in experiment [7], in experiment [8], in [9] and in experiment [10] was more than 100 µM each time.

With `CCCSC1=NC2C(N(CC)C(=O)N2CC)N1/N=C/C=C/c1ccccc1[N+](=O)[O-]` (centres undefined), the GI50 in experiment [1] is 3.76 µM; in [2], 4.04 µM; in experiment [3], 4.25 µM; in experiment [4] it was 10 µM; in [5] it was 5.65 µM; in experiment [6], 2.5 µM. The GI50 was 3.2 µM in [7], 2.76 µM in [8], 1.1 µM in experiment [9] and 2.31 µM in [10]. Besides, the TGI is more than 100 µM in experiment [1]; more than 100 µM in [2]; more than 100 µM in experiment [3]; more than 100 µM in experiment [4]; more than 100 µM in [5]; 8.46 µM in experiment [6]. The TGI is more than 100 µM in [7], 10.3 µM in experiment [8], 5.53 µM in [9] and more than 100 µM in experiment [10].
